From ChEMBL document CHEMBL3124796, “Suzuki coupling based synthesis and in vitro cytotoxic evaluation of 7-heteroaryl-substituted camptothecin analogs” (Bioorg Med Chem Lett, 2014)
The source made the active and inactive calls. The rule behind the calls is not given here.

Columns and labels:
[1] = molecular target: T1, DNA topoisomerase 1 (Homo sapiens) (UniProt P11387); test: Inhibition of topoisomerase 1 (unknown origin)-mediated relaxation of supercoiled pBR322 DNA at 10 uM by agarose gel electrophoresis
T1 sequence (whole entry): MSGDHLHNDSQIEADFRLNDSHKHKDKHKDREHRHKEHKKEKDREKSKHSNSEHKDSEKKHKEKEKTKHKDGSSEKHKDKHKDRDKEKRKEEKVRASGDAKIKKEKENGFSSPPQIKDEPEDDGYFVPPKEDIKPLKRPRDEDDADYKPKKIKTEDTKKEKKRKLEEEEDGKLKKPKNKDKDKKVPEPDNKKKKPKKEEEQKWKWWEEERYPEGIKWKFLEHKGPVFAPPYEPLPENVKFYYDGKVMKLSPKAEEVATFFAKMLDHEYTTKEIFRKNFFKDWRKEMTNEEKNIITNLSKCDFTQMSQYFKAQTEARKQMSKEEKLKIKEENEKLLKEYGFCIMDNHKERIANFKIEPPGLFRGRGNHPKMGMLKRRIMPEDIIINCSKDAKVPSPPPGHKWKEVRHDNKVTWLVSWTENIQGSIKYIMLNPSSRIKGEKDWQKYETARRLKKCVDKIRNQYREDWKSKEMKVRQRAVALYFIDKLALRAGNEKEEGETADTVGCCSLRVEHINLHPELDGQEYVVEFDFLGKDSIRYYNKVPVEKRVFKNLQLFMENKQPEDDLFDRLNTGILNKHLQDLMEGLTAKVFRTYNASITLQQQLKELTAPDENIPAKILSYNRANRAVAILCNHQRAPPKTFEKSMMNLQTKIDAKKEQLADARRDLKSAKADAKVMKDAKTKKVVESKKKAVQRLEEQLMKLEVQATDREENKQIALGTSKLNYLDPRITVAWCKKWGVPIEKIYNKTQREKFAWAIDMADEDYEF

HT-29 = test: Cytotoxicity against human HT-29 cells assessed as growth inhibition after 3 days by SRB assay; assay type: functional, cell-based; conditions: HT-29, 72 h
[2] = molecular target: T1, DNA topoisomerase 1 (Homo sapiens); test: Inhibition of topoisomerase 1 (unknown origin)-mediated relaxation of supercoiled pBR322 DNA at 100 uM by agarose gel electrophoresis
A549 [3] = test: Cytotoxicity against human A549 cells assessed as growth inhibition after 3 days by SRB assay; assay type: functional, cell-based; conditions: A549, 72 h
HCT-116 [4] = test: Cytotoxicity against human HCT116 cells assessed as growth inhibition after 3 days by SRB assay; assay type: functional, cell-based; conditions: HCT-116, 72 h
HCT-116 [5] = test: Cytotoxicity against human HCT116 cells; assay type: functional, cell-based
MDA-MB-231 = test: Cytotoxicity against human MDA-MB-231 cells; assay type: functional, cell-based
A549 [6] = test: Cytotoxicity against human A549 cells; assay type: functional, cell-based

SMILES	inhibition [1]	IC50 (HT-29) [nM]	inhibition [2]	IC50 (A549 [3]) [nM]	IC50 (HCT-116 [4]) [nM]	IC50 (HCT-116 [5]) [nM]	IC50 (MDA-MB-231) [nM]	IC50 (A549 [6]) [nM]
CC[C@@]1(O)C(=O)OCc2c1cc1n(c2=O)Cc2c-1nc1ccccc1c2-c1cnn(C)c1	Active	21.8	Active	2.85	3.51			
CC[C@@]1(O)C(=O)OCc2c1cc1n(c2=O)Cc2c-1nc1ccccc1c2-c1ccc2cn[nH]c2c1		57	Active	3.18	11			
CC[C@@]1(O)C(=O)OCc2c1cc1n(c2=O)Cc2c-1nc1ccccc1c2-c1cnn(C2CCCCO2)c1 (stereo partly drawn)		90.7	Active	7.26	40			
CC[C@@]1(O)C(=O)OCc2c1cc1n(c2=O)Cc2c-1nc1ccccc1c2-c1ccncc1		98.7	inactive	6.33	45.5			
CCCCn1cc(-c2c3c(nc4ccccc24)-c2cc4c(c(=O)n2C3)COC(=O)[C@]4(O)CC)nn1						14	< 10	< 10
CC[C@@]1(O)C(=O)OCc2c1cc1n(c2=O)Cc2c-1nc1ccccc1c2-c1ccnn1C		> 1000	inactive	56.3	458			
CC[C@@]1(O)C(=O)OCc2c1cc1n(c2=O)Cc2c-1nc1ccccc1c2-c1ccc2cc[nH]c2c1		231	Active	11.1	83.5			
CCc1c2c(nc3ccc(O)cc13)-c1cc3c(c(=O)n1C2)COC(=O)[C@]3(O)CC [7-ETHYL-10-HYDROXYCAMPTOTHECIN]		107		2.72	31	166	176	259
CC[C@@]1(O)C(=O)OCc2c1cc1n(c2=O)Cc2c-1nc1ccccc1c2-c1cccnc1		133	inactive	5	60			
